Measured values reported in EP4644375A1, “SUBSTITUTED HYDROQUINOLINES FOR THE TREATMENT OF GLIOBLASTOMA MULTIFORME” (Molius Saglik Teknolojileri Anonim Sirketi, priority 2024, dated 2025).

Assays:
[1] = test system: U138-MG human glioma cell; assay: Cell proliferation analysis (MTT); assay type: cell-based; conditions: 10 µM, two days, MTT; for activity at 10 µM / inhibition at 10 µM: Homo sapiens, 48 h
Description: (§1) U87-MG and U138-MG human glioma cell, were incubated with 10% fetal bovine serum (FBS) (Gibco, 10500-064), 1% L-glutamine (Gibco, 25030-024), in a humidified incubator with 5% CO2 at 37 °C. The cells were contained in DMEM High Glucose (Gibco, 41966-029) supplemented with 1% penicillin-streptomycin (P/S) (Gibco 15140-122) solution. The cytotoxic effects of the target compounds on U87-MG and U138-MG cell lines were assessed using the MTT (Thiazolyl Blue Tetrazolium Bromide) method. 7×10^3 cells were seeded into a 96-well plate in 100 µl DMEM High Glucose 10% FBS and 1% P/S. 24 hours after cell incubation, each target compound was added at a dose of 10 µM and the drug treatment was carried out for two days. After the incubation period, 10 µL of MTT solution was added to each well (5 mg/ml in PBS). After 2 hours, MTT solutions were removed from the wells. Then, 100 µl DMSO was added, and mixed to dissolve the formazan crystals. Cell proliferation was analysed by measuring the absorbance of dissolved formazan at a wavelength of 570 nm.
(§2) IC50 values were determined using the same method as above wherein the cells were treated with the target compounds at different doses.

U87-MG human glioma cell = assay: Cell proliferation analysis (MTT); assay type: cell-based; conditions: for activity at 10 µM / inhibition at 10 µM: Homo sapiens, U-87 MG, 48 h
Description: as §1, §2

| Compound | activity at 10 µM [1] [%] | inhibition at 10 µM [1] [%] | activity at 10 µM (U87-MG human glioma cell; 10 µM, two days, MTT) [%] | inhibition at 10 µM (U87-MG human glioma cell; 10 µM, two days, MTT) [%] | Cell Proliferation (%) [1] [%] | Cell Proliferation (%) (U87-MG human glioma cell; 10 µM, two days, MTT) | top 5 target compounds whose treatment resulted in the lowest proliferation (U87-MG human glioma cell; ranking) |
| --- | --- | --- | --- | --- | --- | --- | --- |
| O=C1CCc2cc(OCCBr)ccc2N1 [TR-G017, 6-(2-bromoethoxy)-3,4-dihydroquinolin-2(1H)-one] | 82 | 18 | 94 | 6 | – | – | – |
| O=C1CCc2cc(OC(=O)Nc3ccc([N+](=O)[O-])cc3)ccc2N1 [TR-G133, 2-oxo-1,2,3,4-tetrahydroquinolin-6-yl (4-nitrophenyl)carbamate] | 77 | 23 | 93 | 7 | – | – | – |
| O=C1CCc2cc(OCC(=O)N3CCN(c4ccc(C(F)(F)F)cc4)CC3)ccc2N1 [TR-G087, 6-(2-oxo-2-(4-(4-(trifluoromethyl)phenyl)piperazin-1-yl)ethoxy)-3,4-dihydroquinolin-2(1H)-one] | 55 | 45 | 58 | 42 | – | – | – |
| O=C1CCc2cc(OCCOCc3ccccc3)ccc2N1 [TR-G001, 6-(2-(benzyloxy)ethoxy)-3,4-dihydroquinolin-2(1H)-one] | – | 12 | – | 22 | 88 | 78 | – |
| O=C1CCc2cc(OC(=O)c3cc(C(F)(F)F)ccc3F)ccc2N1 [TR-G036, 2-oxo-1,2,3,4-tetrahydroquinolin-6-yl 2fluoro-5-(trifluoromethyl)benzoate] | 81 | 19 | 68 | 32 | – | – | – |
| CC(C)C/C=N/NC(=O)COc1ccc2c(c1)CCC(=O)N2 [TR-G003, (E)-N'-(3-methylbutylidene)-2-((2-oxo-1,2,3,4-tetrahydroquinolin-6-yl)oxy)acetohydrazide] | 84 | 16 | 79 | 21 | – | – | – |
| C=CCN1C(=O)CCc2cc(OCCCCc3nnnn3C3CCCCC3)ccc21 [TR-G103, 1-allyl-6-(4-(1-cyclohexyl-1H-tetrazol-5-yl)butoxy)-3,4-dihydroquinolin-2(1H)-one] | 63 | 38 | 45 | 55 | – | – | top 5 |
| Cc1cn(-c2cc(NC(=O)COc3ccc4c(c3)CCC(=O)N4)cc(C(F)(F)F)c2)cn1 [TR-G054, N-(3-(4-methyl-1H-imidazol-1-yl)-5-(trifluoromethyl)phenyl)-2-((2-oxo-1,2,3,4-tetrahydroquinolin-6-yl)oxy)acetamide] | 79 | 21 | 84 | 16 | – | – | – |
| O=C1CCc2cc(OC(=O)Nc3ccc(F)cc3)ccc2N1 [TR-G140, 2-oxo-1,2,3,4-tetrahydroquinolin-6-yl (4-fluorophenyl)carbamate] | 91 | 9 | 80 | 20 | – | – | – |
| CC(C)CCN1C(=O)CCc2cc(OCCCCc3nnnn3C3CCCCC3)ccc21 [TR-G101, 6-(4-(1-cyclohexyl-1H-tetrazol-5-yl)butoxy)-1-isopentyl-3,4-dihydroquinolin-2(1H)-one] | 76 | 24 | 76 | 24 | – | – | – |
| CN1C(=O)/C(=N\NC(=O)COc2ccc3c(c2)CCC(=O)N3)c2cc(F)ccc21 [TR-G047, (Z)-N'-(5fluoro-1-methyl-2-oxoindolin-3-ylidene)-2-((2-oxo-1,2,3,4-tetrahydroquinolin-6-yl)oxy)acetohydrazide] | 62 | 38 | 77 | 23 | – | – | – |
| O=C1CCc2cc(OC(=O)Nc3cccc4ccccc34)ccc2N1 [TR-G135, 2-oxo-1,2,3,4-tetrahydroquinolin-6-yl naphthalene-1-ylcarbamate] | 80 | 20 | 71 | 29 | – | – | – |
